In patent publication US9359281B2, “Enantiomers of 2-hydroxy derivatives of fatty acids” (UNIVERSITAT DE LES ILLES BALEARS, priority 2011, dated 2016):
Where “and” joins values, the source holds several entries; their conditions need not be identical. Equal values may be shown once.

Experiments:
U118 cells = assay: Cell growth inhibition, U118; type: cell-based, human; parameters: key to Effect (anti-proliferation effect): +: inhibition of cell growth; −: absence of effect; conditions: for IC50: U118, sodium salt form
Text: (§1) At this respect, concentrations which inhibit growth of tumour cells (IC50) are lower for the enantiomer S ([−]) in all studied tumour lines (Table 5). […] In all of the cases, the molecules employed were in the form of sodium salt.

[1] = system: human glioma (SF767) cells; assay: Volume of human glioma (SF767) tumours in immuno-depressed mice; type: in vivo; conditions: for Effect: variation in the size of the tumour compared with untreated animals: 15 days
Text: (§2) This example recounts the study carried out on immuno-depressed mice infected with human glioma (SF767) cells and treated for 15 days (orally) with the indicated dose (Table 3).

A549 cells = assay: Cell growth inhibition, A549; type: cell-based, human; parameters: key to Effect (anti-proliferation effect): +: inhibition of cell growth; −: absence of effect; conditions: for IC50: A549, sodium salt form
Text: as §1

Body weight of SHR rats = type: in vivo; conditions: 600 mg/kg·day, 5 days, orally, 600 mg/kg
Experimental: C. Effect on body weight: SHR rats were treated with 2OHOA racemic (+/−) and its optic isomers [−]2OHOA and [+]2OHOA (600 mg/kg·day, 5 days, orally). […] Values of average±EEM body weight (abscises axis, n=6) are shown.
(§3) What is more, we studied the effect of the isomers above on arterial pressure, body weight, and the level of cholesterol, triglycerides and glycemia (glucose in plasma) in SHR rats SHR (FIGS. 8B, 8C and 8D and 8E). […] Similarly, during 1 and 5 days of treatment, rats treated with the racemic loosed 11 gram of weight (approximately a 3% of their body weight), whereas animals of the group treated with enantiomer [−]2OHOA loosed 21 grams and animals of the group treated with enantiomer [+]2OHOA only loosed 7 grams of weight. On the other hand, a higher effect of enantiomer [+]2OHOA in the reduction of triglyceride (TG) and total cholesterol (CHOt) levels was observed (FIG. 8D) At this respect, plasmatic basal levels of TG in SHR rats are of 108 mg/dl and were reduced to 56 mg/dl after 2 weeks treatment […]. On the other hand, treatment with enantiomer [+]2OHOA inducted a reduction of plasmatic TG levels to 47 mg/dl, whereas enantiomer [−]2OHOA only produced a modest reduction to 81 mg/dl. In parallel, levels of CHOt were reduced from 73 mg/dl to 43 mg/dl (racemic), 36 mg/dl (enantiomer [+]2OHOA) and 59 mg/dl (enantiomer [−]2OHOA), respectively.

[2] = system: human lung cancer cells (A549); assay: Volume of tumours derived from human lung cancer cells (A549) in mice; type: in vivo; conditions: 600 mg/kg·day, 15 days, orally
Experimental: A. Effect on the volume of tumours derived from human lung cancer cells (A549): immuno-depressed mice were infected with human lung cancer cells and 7 days later (when the tumours were observable), treatments started with vehicle (control), 2OHOA racemic (+/−), and optic isomers [−]2OHOA and [+]2OHOA (600 mg/kg·day, 15 days, orally). The bars correspond to values of an average±EEM (n=3-5) of the increase in volume (mm^3) of the tumours (n=6).
On the other hand, we investigated the antitumoral activity of these compounds in different types of human cancer (see Tables 2, 4 and 5). […] Furthermore, the activity of these enantiomers was proven against a vast variety of human cancers of different nature, since it can be stated that enantiomers [−] of 2-hydroxylated fatty acids have a high potency in the treatment of any type of cancer.

A375 cells = assay: Cell growth inhibition, A375; type: cell-based, human; conditions: A375, sodium salt form
Text: as §1

SF767 cells = assay: Cell growth inhibition, SF767; type: cell-based, human; parameters: key to Effect (anti-proliferation effect): +: inhibition of cell growth; −: absence of effect; conditions: for IC50: SF767, sodium salt form
Text: as §1

MRC-5 cells = assay: Cell growth inhibition, MRC-5; type: cell-based, human; parameters: key to Effect (anti-proliferation effect): +: inhibition of cell growth; −: absence of effect; conditions: for IC50: MRC-5 non tumor fibroblast, sodium salt form
Text: as §1

[3] = Plasmatic glucose levels in SHR rats; type: in vivo; conditions: 600 mg/kg, 12 h, 15 days, by mouth
Experimental: E. Effects on […] (plasmatic glucose levels): SHR rats were treated with vehicle (control), racemic 2OHOA and their optical isomers [−] 2OHOA and [+]2OHOA (600 mg/kg, 12 h, 15 days, by mouth). The racemic compound and the [−]
as §3

[4] = Triglyceride and total cholesterol levels in SHR rats; type: in vivo; conditions: 600 mg/kg every 12 h, orally, 600 mg/kg; for plasmatic TG levels after treatment: 2 weeks, basal 108 mg/dl; for CHOt levels after treatment: 15 days, basal 73 mg/dl
Experimental: D. Effects on cholesterol and triglyceride levels: SHR rats were treated with 2OHOA racemic (+/−) and its optic isomers [−]2OHOA and [+]2OHOA (600 mg/kg every 12 h, 15 days, orally). […] Values of average±EEM seric levels of lipids expressed as mg/dl (ordinate axis; n=6) are shown.
as §3

MDA-MB-231 cells = assay: Cell growth inhibition, MDA-MB-231; type: cell-based, human; parameters: key to Effect (anti-proliferation effect): +: inhibition of cell growth; −: absence of effect; conditions: for IC50: MDA-MB-231, sodium salt form
Text: as §1

[5] = Toxicity and side effects (symptoms) in treated tumour-bearing mice; type: in vivo; conditions: 15 days
Text: as §2

HT29 cells = assay: Cell growth inhibition, HT29; type: cell-based, human; parameters: key to Effect (anti-proliferation effect): +: inhibition of cell growth; −: absence of effect; conditions: for IC50: HT29, sodium salt form
Text: as §1

Jurkat cells = assay: Cell growth inhibition, Jurkat; type: cell-based, human; parameters: key to Effect (anti-proliferation effect): +: inhibition of cell growth; −: absence of effect; conditions: for IC50: sodium salt form
Text: as §1

U937 cells = assay: Cell growth inhibition, U937; type: cell-based, human; parameters: key to Effect (anti-proliferation effect): +: inhibition of cell growth; −: absence of effect; conditions: for IC50: U937, sodium salt form
Text: as §1

U87 cells = assay: Cell growth inhibition, U87; type: cell-based, human; parameters: key to Effect (anti-proliferation effect): +: inhibition of cell growth; −: absence of effect; conditions: for IC50: U87, sodium salt form
Text: as §1

## CCCCCCCC/C=C\CCCCCCC(O)C(=O)O (stereo not shown) [[−]2OHOA] [[−] HOOC—HOCH—(CH2)6—(CH═CH—CH2)1—(CH2)6—CH3]
U118 cells; U118
  Effect (anti-proliferation effect): +
U118 cells
  IC50: 97.8 µM
[1]; 50 mg/kg orally
  Effect: variation in the size of the tumour compared with untreated animals: −35%
[1]; 75 mg/kg orally
  Effect: variation in the size of the tumour compared with untreated animals: −54%
[1]; 100 mg/kg orally
  Effect: variation in the size of the tumour compared with untreated animals: −65%
[1]; 150 mg/kg orally
  Effect: variation in the size of the tumour compared with untreated animals: −78%
[1]; 200 mg/kg orally
  Effect: variation in the size of the tumour compared with untreated animals: −89%
[1]; 200 mg/kg, 15 days orally
  decrease in the volume of the tumour: 89%
[1]; 400 mg/kg orally
  Effect: variation in the size of the tumour compared with untreated animals: −91%
[1]; 600 mg/kg orally
  Effect: variation in the size of the tumour compared with untreated animals: −86%
A549 cells; A549
  Effect (anti-proliferation effect): +
A549 cells
  IC50: 52.6 µM
A549 cells; listed as [−]2OH18:1
  IC50: 52.6 ± 9.5 µM
Body weight of SHR rats
  loss of body weight: 21 gram
[2]
  volume of tumours derived from A549 cells: significant reductions compared with all the other treatments
A375 cells
  IC50: 163 µM
SF767 cells; SF767
  Effect (anti-proliferation effect): +
SF767 cells
  IC50: 102 µM
MRC-5 cells; MRC-5
  Effect (anti-proliferation effect): −
MRC-5 cells
  IC50: > 5000 µM
[3]
  plasma glucose levels (glycemia): significant reductions
[4]
  plasmatic TG levels after treatment: 81 mg/dL
  CHOt levels after treatment: 59 mg/dL
MDA-MB-231 cells; MDA-MB-231
  Effect (anti-proliferation effect): +
MDA-MB-231 cells
  IC50: 145 µM
[5]; 50 mg/kg orally
  Toxicity: symptoms registered: no side effects and No
[5]; 75 mg/kg orally
  Toxicity: symptoms registered: No
[5]; 100 mg/kg orally
  Toxicity: symptoms registered: No
[5]; 150 mg/kg orally
  Toxicity: symptoms registered: No
[5]; 200 mg/kg orally
  Toxicity: symptoms registered: No
[5]; 400 mg/kg orally
  Toxicity: Behaviour symptoms, percentage of animals: Behaviour 16%
  Toxicity: Diarrhoea, percentage of animals: Diarrhoea 16%
[5]; 600 mg/kg orally
  Toxicity: Behaviour symptoms, percentage of animals: Behaviour 50%
  Toxicity: Diarrhoea, percentage of animals: Diarrhoea 32%
HT29 cells; HT29
  Effect (anti-proliferation effect): +
HT29 cells
  IC50: 159 µM
Jurkat cells
  Effect (anti-proliferation effect): +
  IC50: 35.7 µM
U937 cells; U937
  Effect (anti-proliferation effect): +
U937 cells
  IC50: 136 µM
U87 cells; U87
  Effect (anti-proliferation effect): +
U87 cells
  IC50: 53.5 µM

## CCCCCCCC/C=C\CCCCCCC(O)C(=O)O (stereo not shown) [[+]2OHOA] [[+]HOOC—HOCH—(CH2)6—(CH═CH—CH2)1—(CH2)6—CH3]
U118 cells
  IC50: 212 µM
[1]; 50 mg/kg orally
  Effect: variation in the size of the tumour compared with untreated animals: −2%
[1]; 75 mg/kg orally
  Effect: variation in the size of the tumour compared with untreated animals: +7%
[1]; 100 mg/kg orally
  Effect: variation in the size of the tumour compared with untreated animals: −3%
[1]; 150 mg/kg orally
  Effect: variation in the size of the tumour compared with untreated animals: +1%
[1]; 200 mg/kg orally
  Effect: variation in the size of the tumour compared with untreated animals: −4%
[1]; 400 mg/kg orally
  Effect: variation in the size of the tumour compared with untreated animals: −2%
[1]; 600 mg/kg orally
  Effect: variation in the size of the tumour compared with untreated animals: +3%
[1]; indicated doses (50-600 mg/kg), orally
  activity on tumour volume after 15 days of treatment: showed no activity
A549 cells
  IC50: 133 µM
A549 cells; listed as [+]2OH18:1
  IC50: 133 ± 9.8 µM
Body weight of SHR rats
  loss of body weight: 7 gram
[2]
  volume of tumours derived from A549 cells: no significant changes in the volume of tumours
A375 cells
  IC50: 407 µM
SF767 cells
  IC50: 304 µM
MRC-5 cells
  IC50: > 5000 µM
[3]
  plasma glucose levels (glycemia): reduction without statistical significance
[4]
  plasmatic TG levels after treatment: 56 mg/dL and 47 mg/dL
  CHOt levels after treatment: 36 mg/dL
MDA-MB-231 cells
  IC50: 328 µM
[5]; 50 mg/kg orally
  Toxicity: symptoms registered: No
[5]; 75 mg/kg orally
  Toxicity: symptoms registered: No
[5]; 100 mg/kg orally
  Toxicity: symptoms registered: No
[5]; 150 mg/kg orally
  Toxicity: symptoms registered: No
[5]; 200 mg/kg orally
  Toxicity: Behaviour symptoms, percentage of animals: Behaviour 16%
  Toxicity: Diarrhoea, percentage of animals: Diarrhoea 16%
[5]; 400 mg/kg orally
  Toxicity: Behaviour symptoms, percentage of animals: Behaviour 32%
  Toxicity: Diarrhoea, percentage of animals: Diarrhoea 16%
[5]; 600 mg/kg orally
  Toxicity: Behaviour symptoms, percentage of animals: Behaviour 50%
  Toxicity: Diarrhoea, percentage of animals: Diarrhoea 66%
HT29 cells
  IC50: 342 µM
Jurkat cells
  IC50: 97.2 µM
U937 cells
  IC50: 214 µM
U87 cells
  IC50: 148 µM
